According to patent US8293481B2, “Biomarkers for chronic vascular dysfunction” (Mayo Foundation for Medical Education and Research, priority 2006, dated 2012):

Columns and labels:
Test in all cases: Real-time PCR gene expression in aorta post MI
Assay type in all cases: in vivo, rat
[1] = tested on: Gls2 (glutaminase 2 (liver, mitochondrial)); conditions: 2 weeks post-infarction
From the text: (§1) After intubation, rats were ventilated continuously (room air) using a small animal ventilator (Model 683, Harvard Apparatus, Holliston, Mass.). A left lateral thoracotomy incision was made along the 5th intercostal space and after the pericardium was opened, the heart was exteriorized using a retention suture placed at the apex. The left anterior descending coronary artery (LAD) was ligated twice using 6-0 prolene suture (Ethicon, Cornelia, Ga.). After chest closure with running 3-0 vicryl suture (Ethicon), rats were put in a recovery chamber with a heating pad and warming light. The post-operative survival rate reached 80%. […] Rats were fed a standard diet of Teklad rodent feed (Harlan) ad libitum and kept on a 12:12 h light-dark cycle. Rats were sacrificed at designated time intervals of 2 weeks and 4 weeks after surgery. […] Isolation of total RNA: […] Surrounding peri-adventitial tissues, fat, and endothelium were then carefully cleaned away and removed. The remaining vascular smooth muscle was then frozen with liquid nitrogen, pulverized into fine powder, and resuspended in 600 μl of Buffer RLT with β-ME (10 μl β-ME: 1 ml Buffer RLT, Qiagen, Valencia, Calif.). The lysate was pipetted directly onto a QIAshredder spin column (Qiagen) placed in a 2 ml collection tube and centrifuged for 5 minutes at 14000 rpm, 4° C. The supernatant was transferred to a new microcentrifuge tube and 1 volume of 70% ethanol was added and mixed. The cleared lysate was then transferred to an RNeasy mini-column (Qiagen) placed in a 2 ml collection tube and spun for 15 seconds at ≧10,000 rpm, 4° C. The flow-through was discarded and 700 μl of Buffer RW1 (Qiagen) was added to the RNeasy column. After the column was spun for 15 seconds at ≧10,000 rpm (4° C.), it was transferred into a new 2 ml collection tube, washed, spun twice with 500 μl Buffer RPE (Qiagen), and eluted with 40 μl of RNase-free water using a microcentrifuge (≧10,000 rpm, 4° C.) for 1 minute. Final RNA samples were stored at -20° C. to prevent degradation. Confirmation of microarray result by quantitative real-time PCR: The remaining RNA from the aortic or portal vein RNA sample was quantitatively converted to single stranded cDNA using the High-Capacity cDNA Archive Kit (Applied Biosystems, Foster City, Calif.). Briefly, 50 μl of RNA sample was mixed with 50 μl of 2×RT master mix (10 μl of 10× Reverse Transcription Buffer, 4 μl of 25× dNTPs, 10 μl of 10× random primers, 5 μl of […] Reverse Transcriptase at 50 U/μl, 21 μl of RNase-free H2O) and pipetted into 0.2 ml MICROAMP® PCR Reaction Tubes with Caps (Applied Biosystems, Foster City, Calif.). Reverse transcription was performed using a thermal cycler (Eppendorf Mastercycler gradient) with incubation conditions set at 25° C. for 10 minutes followed by 37° C. for 120 minutes. The synthesized cDNA was then mixed with TAQMAN® Universal PCR Master Mix (2.5 μl of cDNA+47.5 μl of RNase-free H2O+50 μl of Master Mix) and loaded onto 384-Well micro fluid cards for quantitative real-time PCR (TAQMAN® Low Density Arrays, Applied Biosystems). This was done with customer-selected TAQMAN® Gene Expression Assays preloaded into each of the 384 wells. The 7900 HT Gene Expression Micro Fluid Card Configuration 2 (Applied Biosystems) with a total of 24 targets was used; 22 targets were selected to include the results from the microarray study, and the remaining two targets were controls GAPDH and 18S controls. For each cDNA sample, four replicates were analyzed for real-time PCR. After all ports of the Micro Fluidic Card were loaded with cDNA, it was spun for even distribution into the wells using a Sorvall Legend centrifuge (1 minute at 1200 rpm). The array was then run on the Applied Biosystems 7900HT Fast Real-time PCR System, and the data were analyzed using an Applied Biosystems RQ Manager Software (SDS 2.1). […]

[2] = tested on: MIR16 (membrane interacting protein of RGS16); conditions: 4 weeks post-infarction (increased at 2 weeks), FIG. 1
From the text: as §1

Taok1 (TAO kinase 1) = conditions: 2 weeks post-infarction
From the text: as §1

[3] = tested on: Raf1 (v-raf-1 murine leukemia viral oncogene homolog 1); conditions: 2 weeks post-infarction
From the text: as §1

[4] = tested on: Fmr1 (fragile X mental retardation syndrome 1 homolog); conditions: 2 weeks post-infarction
From the text: as §1

[5] = tested on: Baat (bile acid-Coenzyme A amino acid N-acyltransferase); conditions: 2 weeks post-infarction
From the text: as §1

Agt (angiotensinogen) = conditions: 4 weeks post-infarction (increased at 2 weeks), FIG. 1
From the text: as §1

[6] = tested on: IL-1β (interleukin 1 beta); conditions: 2 weeks post-infarction
From the text: as §1

[7] = tested on: Cxcl12 (chemokine (C-X-C motif) ligand 12); conditions: 4 weeks post-infarction (increased at 2 weeks), FIG. 1
From the text: as §1

Rock2 (Rho kinase 2) = conditions: 2 weeks post-infarction
From the text: as §1

C[C@H](CS)C(=O)N1CCC[C@H]1C(=O)O [Captopril, 1-[(2S)-3-mercapto-2-methylpropionyl]-L-proline]
difference disappeared: MIR16 expression, captopril versus placebo [2] | Agt expression, captopril versus placebo (Agt (angiotensinogen)) | Cxcl12 expression, captopril versus placebo [7]
did not demonstrate any difference: Gls2 expression, placebo or captopril therapy [1] | Taok1 expression, placebo or captopril therapy (Taok1 (TAO kinase 1)) | Raf1 expression, placebo or captopril therapy [3] | Fmr1 expression, placebo or captopril therapy [4] | Baat expression, placebo or captopril therapy [5] | IL1-β expression, placebo or captopril therapy [6] | Rock2 expression, placebo or captopril therapy (Rock2 (Rho kinase 2))
